Assay results taken from patent EP0207913A1, “Catechol carboxamides, process for their preparation, intermediates and a pharmaceutical preparation” (priority 1985, dated 1987).
Read-outs that look alike come from different tables or passages of the source.

System: apomorphine syndrome
Assay: In vivo test: apomorphine syndrome inhibition
Design: species or system Male Sprague-Dawley rats
Details: ip, rat, compound injected 60 min prior to apomorphine hydrochloride 1 mg/kg s.c.
Procedure: Male Sprague-Dawley rats (weighing 225-275 g) were used. […] The compounds were injected 60 min. prior to apomorphine hydrochloride (1 mg/kg) which was injected subcutaneously (s.c.) into the neck.
Directly after injection, the animals were placed in the cages, one in each cage. Scoring of the stereotypies were performed by two separate methods. The first scoring system was a modified version of the system introduced by Costall and Naylor (1973). The strength of the stereotype was scored on a 0-3 scale as follows:
In the second system the number of animals displaying hyperactivity caused by apomorphine were scored. Each group consisted of 6-8 animals. Saline controls were always run simultaneously. […] ED50's of the second scoring system are the doses which reduce the number of animals showing hyperactivity by 50 % over the observation period of ? min. The ED50 were calculated from log dose-response curves by the method of least squares from 4-6 dose levels with 6-8 animals per dose level.

[1] = dose reducing number of animals showing hyperactivity by 50 %, read-out: Reduction of hyperactivity ED50
[2] = dose reducing strength of stereotypies (0-3 scale) by 50 % over 60 min, read-out: Reduction of stereotypies ED50

Compound | ED50 [1] | ED50 [2]
CCN1CCCC1CNC(=O)c1cc(Br)cc(OC)c1OC (centres unmarked) | 0.0032 µmol/kg | 0.13 µmol/kg
C=CCN1CCCC1CNC(=O)c1cc(Br)cc(OC)c1OC (centres unmarked) | 0.02 µmol/kg | 0.12 µmol/kg
CCN1CCCC1CNC(=O)c1c(O)c(Cl)cc(Cl)c1OC (centres unmarked) [a compound of EP 60235] | 0.11 µmol/kg | 2.4 µmol/kg
CCN1CCCC1CNC(=O)c1cc(Br)ccc1OC (centres unmarked) [ex 5 of US 3 342 (26)] | 2.5 µmol/kg | 6.5 µmol/kg
